Where two headings read alike, the source gives them in different places.
What was measured:
Format in all cases: biochemical
Cdc25B = molecular target: T1, Cdc25B (Homo sapiens, UniProt P30305); experiment: Cdc25B phosphatase inhibition (50 μM screen, 3 pt. and 8 pt. IC-50); settings: for IC50: Cdc25B; for inhibition at 50 µM: read-out: Percent Inhibition at 50 uM compound, Cdc25 B
T1 sequence (P30305 1-580): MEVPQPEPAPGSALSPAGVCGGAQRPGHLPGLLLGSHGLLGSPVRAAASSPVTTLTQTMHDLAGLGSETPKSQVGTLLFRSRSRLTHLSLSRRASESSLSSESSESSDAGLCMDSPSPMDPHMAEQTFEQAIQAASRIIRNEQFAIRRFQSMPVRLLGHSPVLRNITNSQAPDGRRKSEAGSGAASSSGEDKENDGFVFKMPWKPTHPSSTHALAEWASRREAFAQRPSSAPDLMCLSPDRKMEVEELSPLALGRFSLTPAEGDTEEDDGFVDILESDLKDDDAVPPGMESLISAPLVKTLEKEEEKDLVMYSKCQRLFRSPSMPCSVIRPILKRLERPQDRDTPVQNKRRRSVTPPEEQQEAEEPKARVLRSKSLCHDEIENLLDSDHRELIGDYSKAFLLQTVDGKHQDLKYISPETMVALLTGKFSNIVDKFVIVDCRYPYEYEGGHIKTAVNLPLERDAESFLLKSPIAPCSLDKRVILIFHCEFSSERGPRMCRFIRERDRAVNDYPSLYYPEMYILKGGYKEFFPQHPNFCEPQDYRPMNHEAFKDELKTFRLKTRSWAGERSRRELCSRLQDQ
Protocol: (§1) Using procedures known to those skilled in the art, the compounds listed in Table 3 were screened against Cdc25A, Cdc25B, and Cdc25C at 50 μM. […] To analyze these effects further, the compounds were then screened against Cdc25B in a 3 pt. IC-50, using 1, 7 and 50 μM. Several of the compounds were also screened with an 8 pt. IC-50 process, using 0.1–10 μM, allowing determination of Hill slopes.

Cdc25A = molecular target: T2, Cdc25A (Homo sapiens, UniProt P30304); experiment: Cdc25A phosphatase inhibition screen at 50 μM; settings: for inhibition at 50 µM: read-out: Percent Inhibition at 50 uM compound, Cdc25 A
T2 sequence (P30304 1-524): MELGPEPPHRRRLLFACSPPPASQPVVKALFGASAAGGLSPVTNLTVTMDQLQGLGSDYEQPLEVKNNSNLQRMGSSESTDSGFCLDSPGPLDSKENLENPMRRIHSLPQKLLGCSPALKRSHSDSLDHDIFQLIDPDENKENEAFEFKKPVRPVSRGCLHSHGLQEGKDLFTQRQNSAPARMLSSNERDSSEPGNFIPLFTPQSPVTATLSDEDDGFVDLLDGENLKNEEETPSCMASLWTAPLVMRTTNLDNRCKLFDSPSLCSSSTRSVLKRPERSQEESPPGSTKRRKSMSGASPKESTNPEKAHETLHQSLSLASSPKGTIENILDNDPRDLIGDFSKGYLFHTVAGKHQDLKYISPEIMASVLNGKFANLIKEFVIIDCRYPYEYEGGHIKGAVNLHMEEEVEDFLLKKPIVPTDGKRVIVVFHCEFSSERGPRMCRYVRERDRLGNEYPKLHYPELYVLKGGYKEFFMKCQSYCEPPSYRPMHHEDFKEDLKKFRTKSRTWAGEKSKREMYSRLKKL
Protocol: as §1

Cdc25C = molecular target: T3, Cdc25C (Homo sapiens, UniProt P30307); experiment: Cdc25C phosphatase inhibition screen at 50 μM; settings: for inhibition at 50 µM: read-out: Percent Inhibition at 50 uM compound, Cdc25 C
T3 sequence (P30307 1-473): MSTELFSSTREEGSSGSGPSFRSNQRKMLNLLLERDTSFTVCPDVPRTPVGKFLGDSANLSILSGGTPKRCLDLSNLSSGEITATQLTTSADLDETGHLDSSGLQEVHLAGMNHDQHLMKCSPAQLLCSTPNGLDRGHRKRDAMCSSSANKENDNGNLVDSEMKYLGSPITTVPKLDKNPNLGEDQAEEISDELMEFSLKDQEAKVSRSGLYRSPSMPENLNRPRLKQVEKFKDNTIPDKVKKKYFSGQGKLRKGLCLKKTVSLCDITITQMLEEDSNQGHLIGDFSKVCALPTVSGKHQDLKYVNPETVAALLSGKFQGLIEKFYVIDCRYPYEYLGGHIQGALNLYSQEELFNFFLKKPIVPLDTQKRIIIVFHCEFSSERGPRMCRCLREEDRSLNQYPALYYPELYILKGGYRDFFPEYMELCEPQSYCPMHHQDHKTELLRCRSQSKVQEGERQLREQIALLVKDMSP
Protocol: as §1

[1] = 3 pt. IC-50 using 1, 7 and 50 μM, read-out: IC50 (3 pt)
[2] = 8 pt. IC-50 using 0.1–10 μM, read-out: IC50 (8 pt)

Row | Compound | IC50 (Cdc25B; [1]) [µM] | IC50 (Cdc25B; [2]) [µM] | inhibition at 50 µM (Cdc25B) [%] | inhibition at 50 µM (Cdc25A) [%] | inhibition at 50 µM (Cdc25C) [%] | Percent Inhibition at 50 uM compound, Cdc25 B (Cdc25B; 50 uM compound) [%] | Percent Inhibition at 50 uM compound, Cdc25 A (Cdc25A; 50 uM compound) [%] | Percent Inhibition at 50 uM compound, Cdc25 C (Cdc25C; 50 uM compound) [%]
1 | O=C1C=C(O)C(=O)C(c2c[nH]c3ccccc23)=C1O [2A, 2,5-dihydroxy-3(1H-indol-3-yl)-[1,4]-benzoquinone] | 14.2 | 16.5 | 75 | 55 | 69 |  |  | 
2 | Cn1cc(C2=C(O)C(=O)C=C(O)C2=O)c2ccccc21 [2B, 2,5-dihydroxy-3-(1-methyl-1H-indol-3-yl)-[1,4]-benzoquinone] | 185 |  | 42 | 63 | 19 |  |  | 
3 | Cc1[nH]c2ccccc2c1C1=C(O)C(=O)C=C(O)C1=O [2C, 2,5-dihydroxy-3-(2-methyl-1H-indol-3-yl)-[1,4]-benzoquinone] | 138 |  | 9 | 35 | 5 |  |  | 
4 | CCc1[nH]c2ccccc2c1C1=C(O)C(=O)C=C(O)C1=O [2D, 2,5-dihydroxy-3-(2-ethyl-1H-indol-3-yl)-[1,4]-benzoquinone] | 33.4 |  | 36 | 51 | 14 |  |  | 
5 | O=C1C=C(O)C(=O)C(c2c(C3CC3)[nH]c3ccccc23)=C1O [2E, 2,5-dihydroxy-3-(2-cyclopropyl-1H-indol-3-yl)-[1,4]-benzoquinone] | 2.3 | 24.4 | 32 | 79 | 0 |  |  | 
6 | CC(C)c1[nH]c2ccccc2c1C1=C(O)C(=O)C=C(O)C1=O [2F, 2,5-dihydroxy-3-(2-isopropyl-1H-indol-3-yl)-[1,4]-benzoquinone] | 8.3 |  | 13 | 58 | 0 |  |  | 
7 | CC1(c2[nH]c3ccccc3c2C2=C(O)C(=O)C=C(O)C2=O)CC1 [2G, 2,5-dihydroxy-3-[2-(1-methylcycloproyl)-1H-indol-3-yl]-[1,4]-benzoquinone] | 3.6 |  | 17 | 49 | 0 |  |  | 
8 | CC(C)(C)c1[nH]c2ccccc2c1C1=C(O)C(=O)C=C(O)C1=O [2H, 2,5-dihydroxy-3-(2-tert-butyl-1H-indol-3-yl)-[1,4]-benzoquinone] | 13.9 |  | 11 | 31 | 0 |  |  | 
9 | CC1(c2[nH]c3ccccc3c2C2=C(O)C(=O)C=C(O)C2=O)CCCCC1 [3A, 2,5-dihydroxy-3-[2-(1-methylcyclohexyl)-1H-indol-3-yl]-[1,4]-benzoquinone] | 82.9 |  | 11 | 69 | 22 |  |  | 
10 | O=C1C=C(O)C(=O)C(c2c(-c3ccccc3)[nH]c3ccccc23)=C1O [3B, 2,5-dihydroxy-3-(2-phenyl-1H-indol-3-yl)-[1,4]-benzoquinone] | 22.2 |  | 38 | 93 | 18 |  |  | 
11 | C=CC(C)(C)c1[nH]c2ccccc2c1C1=C(O)C(=O)C=C(O)C1=O [3C, 2,5-dihydroxy-3-[2-(1,1-dimethyl-allyl)-1H-indol-3-yl]-[1,4]-benzoquinone] | 40.3 |  | 0 | 40 | 21 |  |  | 
12 | O=C1C=C(O)C(=O)C(c2c[nH]c3cccc(F)c23)=C1O [3D, 2,5-dihydroxy-3-(4-fluoro-1H-indol-3-yl)-[1,4]-benzoquinone] | 1.2 | 15.9 | 5 | 59 | 0 |  |  | 
13 | O=C1C=C(O)C(=O)C(c2c[nH]c3cccc(Cl)c23)=C1O [3E, 2,5-dihydroxy-3-(4-chloro-1H-indol-3-yl)-[1,4]-benzoquinone] | 3 | 8.4 | 21 | 67 | 0 |  |  | 
14 | O=C1C=C(O)C(=O)C(c2c[nH]c3cccc(Br)c23)=C1O [3F, 2,5-dihydroxy-3-(4-bromo-1H-indol-3-yl)-[1,4]-benzoquinone] | 3.1 | > 2 | 6 | 0 | 54 |  |  | 
15 | COc1cccc2[nH]cc(C3=C(O)C(=O)C=C(O)C3=O)c12 [3G, 2,5-dihydroxy-3-(4-methoxy-1H-indol-3-yl)-[1,4]-benzoquinone] | 7.2 |  | 21 | 77 | 19 |  |  | 
16 | O=C1C=C(O)C(=O)C(c2c[nH]c3cccc(OCc4ccccc4)c23)=C1O [3H, 2,5-dihydroxy-3-(4-benzyloxy-1H-indol-3-yl)-[1,4]-benzoquinone] | 4.6 |  | 0 | 87 | 2 |  |  | 
17 | Cc1cccc2c(C3=C(O)C(=O)c4cccc(O)c4C3=O)c[nH]c12 [4E, 2,5-dihydoxy-3-(7-methyl-1H-indol-3-yl)-[1,4]naphthoquinone] | 69.3 |  |  |  |  | 0 | 10 | 0

Second part, led by results:

Row | IC50 (Cdc25B; [1]) [µM] | IC50 (Cdc25B; [2]) [µM] | inhibition at 50 µM (Cdc25B) [%] | inhibition at 50 µM (Cdc25A) [%] | inhibition at 50 µM (Cdc25C) [%] | Compound | Percent Inhibition at 50 uM compound, Cdc25 B (Cdc25B; 50 uM compound) [%] | Percent Inhibition at 50 uM compound, Cdc25 A (Cdc25A; 50 uM compound) [%] | Percent Inhibition at 50 uM compound, Cdc25 C (Cdc25C; 50 uM compound) [%]
18 | 6 |  | 9 | 51 | 28 | Cc1cccc2[nH]cc(C3=C(O)C(=O)C=C(O)C3=O)c12 [4A, 2,5-dihydroxy-3-(4-methyl-1H-indol-3-yl)-[1,4]-benzoquinone] |  |  | 
19 | 11.7 |  | 32 | 64 | 23 | O=C1C=C(O)C(=O)C(c2c[nH]c3ccc(F)cc23)=C1O [4B, 2,5-dihydroxy-3-(5-fluoro-1H-indol-3-yl)-[1,4]-benzoquinone] |  |  | 
20 | 2.3 |  | 32 | 95 | 45 | O=C1C=C(O)C(=O)C(c2c[nH]c3ccc(Cl)cc23)=C1O [4C, 2,5-dihydroxy-3-(5-chloro-1H-indol-3-yl)-[1,4]-benzoquinone] |  |  | 
21 | 2.4 |  | 55 | 96 | 26 | O=C1C=C(O)C(=O)C(c2c[nH]c3ccc(Br)cc23)=C1O [4D, 2,5-dihydroxy-3-(5-bromo-1H-indol-3-yl)-[1,4]-benzoquinone] |  |  | 
22 | 6 |  | 0 | 15 | 0 | COc1ccc2[nH]cc(C3=C(O)C(=O)C=C(O)C3=O)c2c1 [4F, 2,5-dihydroxy-3-(5-methoxy-1H-indol-3-yl)-[1,4]-benzoquinone] |  |  | 
23 | 1.8 |  | 50 | 96 | 26 | O=C1C=C(O)C(=O)C(c2c[nH]c3ccc(OCc4ccccc4)cc23)=C1O [4G, 2,5-dihydroxy-3-(5-benzyloxy-1H-indol-3-yl)-[1,4]-benzoquinone] |  |  | 
24 | 2.5 |  | 61 | 94 | 55 | Cc1ccc2[nH]cc(C3=C(O)C(=O)C=C(O)C3=O)c2c1 [4H, 2,5-dihydroxy-3-(5-methyl-1H-indol-3-yl)-[1,4]-benzoquinone] |  |  | 

From patent publication US7057052B2, “Heterocyclic quinones as pharmaceutical agents” (Duke University, priority 2002, dated 2006)
